Here are results for 18 compounds from patent US5594157A, “Process for making taxol derivatives” (Abbott Laboratories, priority 1995, dated 1997).

For series [1], the system named is A549. Put plainly: In vitro tumor cell cytotoxicity, three day MTT microtiter assay (A549). To be noted: for IC50: Homo sapiens, read-out: In vitro tumor cell cytotoxicity (IC50). It is filed as cell-based, human. As for the experimental part:
(§1) A three day microtiter assay was used to measure the growth inhibition of cultured cells exposed to a range of drug concentrations. Metabolic activity was measured by the cells' ability to reduce the tetrazolium dye, MTT (3-(4,5-dimethylthiazol-2-yl-2,5-diphenyltetrazolium bromide) to a quantifiable colored end product, which absorbs at 570 nm in the visible spectrum. Surviving cells reduce the MTT dye.
(§2) Test compounds were dissolved in dimethyl sulfoxide (DMSO) and diluted, first with Earle's Balanced Salt Solution, followed by culture medium, to twice the highest concentration of compound to be tested. From this concentrated stock, two-fold serial dilutions were prepared in 96-well microtiter trays, each well containing twice the desired final concentration of compound. Each concentration was tested in triplicate and compared to triplicate drug-free controls.
(§3) The cells were grown in the same medium used for diluting the compounds and then harvested using trypsinization. This involved removing the medium by aspiration; rinsing the cell monolayer twice with Earle's Balanced Salt Solution; adding trypsin (0.05%)/EDTA (0.53 mM; for each 25 cm^2, approximately 0.2 mL), tilting to cover the monolayer, and then withdrawing trypsin leaving only a thin film of solution; incubating at room temperature until the cell monolayers detached (as determined by visual and/or microscopic observation); adding medium contaiing fetal calf serum to stop the action of the trypsin and resuspend the cells; triturating to aid dissociation of cell clumps; and determining the number of cells per milliliter by electronic cell counter (e.g. Coulter Counter) or by mixing an aliquot of cell suspension with Trypan Blue (0.4% in normal saline) and counting the viable cells using a hemacytometer.
(§4) After harvesting and determination of viable cell counts, cell density was adjusted to 25,000 cells/mL. Inoculum (0.1 mL) containing the cells was then added to each well for a final concentration of 2,500 cells per well. Addition of the inoculum diluted the test compounds to the desired final concentration.
(§5) Microtiter trays were then incubated for three days at 36° C. in a humidified atmosphere containing 5% carbon dioxide. After three days, 20 microtiters of 5 mg/mL MTT in phosphate-buffered saline solution were added to each well. Trays were returned to the incubator for two to four hours to allow the surviving cells to reduce the dye. Medium and unreduced dye were removed by aspiration. DMSO was added to each well to dissolve the water-insoluble, colored end product of the dye reduction so that it could be measured spectrophotometrically at 570 nm.

In series [2] the test system is P-388. Briefly: In vitro tumor cell cytotoxicity, three day MTT microtiter assay (P-388). It is filed as cell-based, mouse. Particulars: for IC50: P388, 72 h, read-out: In vitro tumor cell cytotoxicity (IC50). As for the experimental part: as §1, §2, §3, §4, §5
(In general: Tetrazolium dyes change colour on reduction, which living cells bring about.)

Setting [3] is: P-388 (mouse leukemia), 3 days, MTT, absorbance at 570 nm.
The mark [4] stands for this setting: 72 h, A549, 3 days, MTT, absorbance at 570 nm.

In brackets after ≈: the same amount, converted by molar mass. Where two headings read alike, the source gives them in different places.

The term IC50 denotes the point on the concentration scale where inhibition reaches its midpoint. As for `CC(=O)O[C@@H]1C2=C(C)[C@@H](OC(=O)[C@H](O)[C@@H](NC(=O)c3ccccc3)c3ccccc3)C[C@@](O)([C@@H](OC(=O)c3ccccc3)[C@@H]3[C@]4(OC(C)=O)CO[C@@H]4C[C@H](O)[C@@]3(C)[C@H]1O)C2(C)C` [Example 8, 9-Dihydrotaxol], the 50% inhibitory concentration (IC50) stood at 0.016 µg/mL (≈ 0.0187 µM) in series [1] (A549, 72 h) and 0.049 µg/mL (≈ 0.0572 µM) in series [2] (Mus musculus).

For `CC(=O)O[C@@]12CO[C@@H]1C[C@H](O)[C@]1(C)[C@@H]2[C@H](OC(=O)c2ccccc2)[C@]2(O)C[C@H](OC(=O)[C@H](O)[C@@H](NC(=O)c3ccccc3)c3ccccc3)C(C)=C([C@@H](O)[C@@H]1O)C2(C)C` [Example 9, 10-Deacetyl-9-dihydrotaxol], the “In vitro tumor cell cytotoxicity (IC50)” value turned out to be 0.011 µg/mL in series [1] (A549, 3 days, MTT, absorbance at 570 nm) and 0.14 µg/mL in series [2] (setting [3]).

With `CC(=O)O[C@@H]1C2=C(C)[C@@H](OC(=O)[C@H](O)[C@@H](NC(=O)c3ccccc3)c3ccccc3)C[C@@](O)([C@@H](OC(=O)c3ccccc3)[C@@H]3[C@]4(OC(C)=O)CO[C@@H]4C[C@@H]4OC(C)(C)O[C@@H]1[C@]43C)C2(C)C` [Example 10, 9-Dihydrotaxol-7,9-isopropylidene ketal], the IC50 in series [1] (A549, 72 h) worked out at 0.025 µg/mL (≈ 0.0279 µM); in series [2] (Mus musculus), 0.042 µg/mL (≈ 0.0469 µM).

As for `CCC1O[C@H]2C[C@H]3OC[C@@]3(OC(C)=O)[C@H]3[C@H](OC(=O)c4ccccc4)[C@]4(O)C[C@H](OC(=O)[C@H](O)[C@@H](NC(=O)c5ccccc5)c5ccccc5)C(C)=C([C@@H](OC(C)=O)[C@H](O1)[C@]23C)C4(C)C` (stereo partly drawn) [Example 11, 9-Dihydrotaxol-7,9-propylidene acetal], the IC50 in series [1] (A549, 72 h) was 0.023 µg/mL (≈ 0.0257 µM); in series [2] (Mus musculus), 0.022 µg/mL (≈ 0.0246 µM).

`CC(=O)O[C@@H]1C2=C(C)[C@@H](OC(=O)[C@H](O)[C@@H](NC(=O)c3ccccc3)c3ccccc3)C[C@@](O)([C@@H](OC(=O)c3ccccc3)[C@@H]3[C@]4(OC(C)=O)CO[C@@H]4C[C@@H]4OC(c5ccccc5)O[C@@H]1[C@]43C)C2(C)C` (stereo partly drawn) [Example 12, 9-Dihydrotaxol-7,9-benzylidene acetal]: the IC50 in series [1] (setting [4]) and in series [2] (setting [3]) was 1 µg/mL (≈ 1.06 µM) in each case.

Consider `CC(=O)O[C@@H]1C2=C(C)[C@@H](OC(=O)[C@H](O)[C@@H](NC(=O)c3ccccc3)c3ccccc3)C[C@@](O)([C@@H](OC(=O)c3ccccc3)[C@@H]3[C@]4(OC(C)=O)CO[C@@H]4C[C@@H]4OC(CC(O)CO)O[C@@H]1[C@]43C)C2(C)C` (stereo partly drawn) [Example 13, 9-Dihydrotaxol-7,9-(3,4-dihydroxy)butylidene acetal], for which the IC50 in series [1] (A549, 72 h) is 0.3 µg/mL (≈ 0.318 µM); in series [2] (Mus musculus) it was 0.18 µg/mL (≈ 0.191 µM).

In the case of `CC(=O)O[C@@H]1C2=C(C)[C@@H](OC(=O)[C@H](O)[C@@H](NC(=O)c3ccccc3)c3ccccc3)C[C@@](O)([C@@H](OC(=O)c3ccccc3)[C@@H]3[C@]4(OC(C)=O)CO[C@@H]4C[C@@H]4OC(=S)O[C@@H]1[C@]43C)C2(C)C` [Example 14, 9-Dihydrotaxol-7,9-thionocarbonate], the IC50 in series [1] (A549, 72 h) came to 0.019 µg/mL (≈ 0.0212 µM); in series [2] (Mus musculus), 0.035 µg/mL (≈ 0.039 µM).

As to `C=CCO[C@H]1C[C@H]2OC[C@@]2(OC(C)=O)[C@H]2[C@H](OC(=O)c3ccccc3)[C@]3(O)C[C@H](OC(=O)[C@H](O)[C@@H](NC(=O)c4ccccc4)c4ccccc4)C(C)=C([C@@H](OC(C)=O)[C@H](O)[C@]12C)C3(C)C` [Example 15, 9-Dihydrotaxol-7-O-allyl ether], the concentration for half-maximal inhibition (IC50) was 0.001 µg/mL (≈ 0.00112 µM) in series [1] (A549, 72 h) and 0.0053 µg/mL (≈ 0.00592 µM) in series [2] (Mus musculus).

`CC(=O)O[C@@H]1C2=C(C)[C@@H](OC(=O)[C@H](O)[C@@H](NC(=O)c3ccccc3)c3ccccc3)C[C@@](O)([C@@H](OC(=O)c3ccccc3)[C@@H]3[C@]4(OC(C)=O)CO[C@@H]4C[C@H](OCC(O)CO)[C@@]3(C)[C@H]1O)C2(C)C` (stereo partly drawn) [Example 16, 9-dihydrotaxol 7-O-(2,3-dihydroxypropyl) ether]: the IC50 in series [1] (setting [4]) was 0.626 µg/mL (≈ 0.673 µM); in series [2] (setting [3]), more than 1 µg/mL.

With `CCN(CC)CCO[C@H]1C[C@H]2OC[C@@]2(OC(C)=O)[C@H]2[C@H](OC(=O)c3ccccc3)[C@]3(O)C[C@H](OC(=O)[C@H](O)[C@@H](NC(=O)c4ccccc4)c4ccccc4)C(C)=C([C@@H](OC(C)=O)[C@H](O)[C@]12C)C3(C)C` [Example 17], the 50% inhibitory concentration (IC50) in series [1] (A549, 72 h) stood at 0.4 µg/mL (≈ 0.419 µM); in series [2] (Mus musculus) it was 0.31 µg/mL (≈ 0.325 µM).

Take `CC(=O)O[C@@H]1C2=C(C)[C@@H](OC(=O)[C@H](O)[C@@H](NC(=O)c3ccccc3)c3ccccc3)C[C@@](O)([C@@H](OC(=O)c3ccccc3)[C@@H]3[C@]4(OC(C)=O)CO[C@@H]4C[C@H](OCCO)[C@@]3(C)[C@H]1O)C2(C)C` [Example 18, 9-Dihydrotaxol 7-O-(2-Hydroxyethyl) ether]: the results for the IC50 in series [1] (setting [4]) and in series [2] (setting [3]) were 0.039 µg/mL (≈ 0.0433 µM) and 0.17 µg/mL (≈ 0.189 µM), respectively.

Turning to `CC(=O)OCCO[C@H]1C[C@H]2OC[C@@]2(OC(C)=O)[C@H]2[C@H](OC(=O)c3ccccc3)[C@]3(O)C[C@H](OC(=O)[C@H](O)[C@@H](NC(=O)c4ccccc4)c4ccccc4)C(C)=C([C@@H](OC(C)=O)[C@H](O)[C@]12C)C3(C)C` [Example 19, 9-Dihydrotaxol 7-O-(2-Acetoxyethyl) ether], the IC50 in series [1] (setting [4]) came out at 0.12 µg/mL (≈ 0.127 µM); in series [2] (setting [3]), 0.079 µg/mL (≈ 0.0839 µM).

On to `CC(=O)O[C@@H]1C2=C(C)[C@@H](OC(=O)[C@H](O)[C@@H](NC(=O)OC(C)(C)C)c3ccccc3)C[C@@](O)([C@@H](OC(=O)c3ccccc3)[C@@H]3[C@]4(OC(C)=O)CO[C@@H]4C[C@H](O)[C@@]3(C)[C@H]1O)C2(C)C` [Example 20, N-Debenzoyl-N-t-butoxycarbonyl-9-dihydrotaxol], for which the half-maximal inhibitory concentration (IC50) in series [1] (setting [4]) turned out to be 0.0003 µg/mL (≈ 0.000352 µM); in series [2] (setting [3]), 0.0025 µg/mL (≈ 0.00293 µM).

On to `CC(=O)O[C@@]12CO[C@@H]1C[C@H](O)[C@]1(C)[C@@H]2[C@H](OC(=O)c2ccccc2)[C@]2(O)C[C@H](OC(=O)[C@H](O)[C@@H](NC(=O)OC(C)(C)C)c3ccccc3)C(C)=C([C@@H](O)[C@@H]1O)C2(C)C` [Example 21, 10-Deacetyl-N-debenzoyl-N-t-butoxycarbonyl-9-dihydrotaxol], for which the IC50 in series [1] (setting [4]) is 0.00026 µg/mL (≈ 0.000321 µM); in series [2] (setting [3]), 0.0028 µg/mL (≈ 0.00346 µM).

Take `CC(=O)O[C@@H]1C2=C(C)[C@@H](OC(=O)[C@H](O)[C@@H](NC(=O)CC(C)(C)C)c3ccccc3)C[C@@](O)([C@@H](OC(=O)c3ccccc3)[C@@H]3[C@]4(OC(C)=O)CO[C@@H]4C[C@H](O)[C@@]3(C)[C@H]1O)C2(C)C` [Example 22, N-Debenzoyl-N-t-butylacetyl-9-dihydrotaxol]: the IC50 is 0.027 µg/mL (≈ 0.0318 µM) in series [1] (setting [4]) and 0.052 µg/mL (≈ 0.0612 µM) in series [2] (setting [3]).

In the case of `CC(=O)O[C@@H]1C2=C(C)[C@@H](OC(=O)[C@H](O)[C@@H](NC(=O)OCC(C)C)c3ccccc3)C[C@@](O)([C@@H](OC(=O)c3ccccc3)[C@@H]3[C@]4(OC(C)=O)CO[C@@H]4C[C@H](O)[C@@]3(C)[C@H]1O)C2(C)C` [Example 23, N-Debenzoyl-N-isobutoxycarbonyl-9-dihydrotaxol], the IC50 worked out at 0.0043 µg/mL (≈ 0.00505 µM) in series [1] (A549, 72 h) and 0.028 µg/mL (≈ 0.0329 µM) in series [2] (Mus musculus).

As for `CC(=O)O[C@@H]1C2=C(C)[C@@H](OC(=O)[C@H](O)[C@@H](NC(=O)OC34CC5CC(CC(C5)C3)C4)c3ccccc3)C[C@@](O)([C@@H](OC(=O)c3ccccc3)[C@@H]3[C@]4(OC(C)=O)CO[C@@H]4C[C@H](O)[C@@]3(C)[C@H]1O)C2(C)C` [Example 24, N-Debenzoyl-N-adamantoxycarbonyl-9-dihydrotaxol], the 50% inhibitory concentration (IC50) in series [1] (A549, 72 h) is 0.0043 µg/mL (≈ 0.00462 µM); in series [2] (Mus musculus) it was 0.01 µg/mL (≈ 0.0108 µM).

`CC(=O)O[C@@H]1C2=C(C)[C@@H](OC(=O)[C@H](O)[C@@H](NC(=O)OC(C)C)c3ccccc3)C[C@@](O)([C@@H](OC(=O)c3ccccc3)[C@@H]3[C@]4(OC(C)=O)CO[C@@H]4C[C@H](O)[C@@]3(C)[C@H]1O)C2(C)C` [Example 25, N-Debenzoyl-N-isopropoxycarbonyl-9-dihydrotaxol]: the results for the half-inhibitory concentration (IC50) in series [1] (setting [4]) and in series [2] (setting [3]) were 0.0012 µg/mL (≈ 0.00143 µM) and 0.0092 µg/mL (≈ 0.011 µM), respectively.
